Test results taken from patent US12492195B2, “Preparation method for and crystal form of 3-aryloxy-3-five-membered heteroaryl-propylamine compound” (Zhangzhou Pien Tze Huang Pharmaceutical Co., Ltd., priority 2020, dated 2025).
In brackets after ≈: the same amount, converted by molar mass. Read-outs that look alike come from different tables or passages of the source.

Legend:
[1] = Hygroscopicity test by dynamic moisture absorption (DVS); type: physicochemical
Protocol: Dynamic moisture adsorption (DVS) analysis: the instrument is a DVS Intrinsic produced by SMS company (Surface Measurement Systems); temperature, 25° C.; carrier gas, flow rate: nitrogen, 200 ml/min; mass change per unit time: 0.002%/min: relative humidity range: 0/oRH-95% RH.
Dynamic moisture absorption (DVS) was used to test their hygroscopicity.

[2] = Protocol: In the experiment, the initial dosage of crystal form A of the hydrochloride salt in H2O, SGF, and FaSSIF was about 20 mg/mL, and the initial dosage in FeSSIF was about 40 mg/mL. […] The samples were sealed and mounted on a rotating disk rotating at 25 rpm, and the rotating disk was placed in a 37° C. incubator. Samples were taken at time points 1, 4 and 24 hours of equilibration, and the filtrate was separated and tested concentration by HPLC.
[3] = 24 hours
Protocol: The crystal form A of the hydrochloride salt of the compound of formula Ic-1 was tested for equilibrium solubility in water for 24 hours at room temperature. The form A was dosed with about 300 mg/mL solid feed, and magnetic stirred (750 rpm) in water for 24 hours to obtain a suspension. After centrifugation, the supernatant was filtered through a 0.22-μm PTFE membrane and then tested by HPLC, and the obtained solid was tested by XRPD.

In the case of CNCC[C@@H](Oc1cccc2ccoc12)c1cccs1 [Form A], the “change in crystal form (XRPD) before and after the DVS test” value [1] is reported as “no change in crystal form was observed”, the “solubility” value ([2]; FaSSIF pH 6.5, 37° C., 1 hour) is reported as 20.2 mg/mL (≈ 70.3 mM) and the “solubility” value ([2]; FaSSIF pH 6.5, 37° C., 4 hours) is reported as 20.7 mg/mL (≈ 72 mM). The “solubility” value ([2]; FaSSIF pH 6.5, 37° C., 24 hours) was 20.8 mg/mL (≈ 72.4 mM), the “solubility” value ([2]; FeSSIF pH 5.0, 37° C., 1 hour) was 32.8 mg/mL (≈ 114 mM) and the “solubility” value ([2]; FeSSIF pH 5.0, 37° C., 4 hours) was 36.8 mg/mL (≈ 128 mM). For the same compound, the “solubility” value ([2]; FeSSIF pH 5.0, 37° C., 24 hours) was 39.4 mg/mL (≈ 137 mM), the “solubility” value ([2]; SGF pH 1.9, 37° C., 1 hour) was 16.5 mg/mL (≈ 57.4 mM) and the “solubility” value ([2]; SGF pH 1.9, 37° C., 4 hours) was 14.8 mg/mL (≈ 51.5 mM). The “solubility” value ([2]; SGF pH 1.9, 37° C., 24 hours) was 11.1 mg/mL (≈ 38.6 mM), the “solubility” value ([2]; Water, 37° C., 1 hour) was 16.7 mg/mL (≈ 58.1 mM) and the “solubility” value ([2]; Water, 37° C., 4 hours) was 17.7 mg/mL (≈ 61.6 mM). The “solubility” value ([2]; Water, 37° C., 24 hours) was 17.3 mg/mL (≈ 60.2 mM), the “solubility in water (concentration of free state)” value ([3]; room temperature) was 21 ± 0.5 mg/mL and the “solubility in water converted to hydrochloride concentration” value ([3]; room temperature) was 237.3 mg/mL (≈ 826 mM). The “solid crystal form after the equilibrium solubility test (XRPD)” value ([3]; water) was “solid crystal form did not change”.
